In patent US11053204B2, “Pyrimidinyloxy benzene derivatives as herbicides” (FMC Corporation, priority 2015, dated 2021):

Legend:
Assay in all cases: Test C postemergence, plant response rating
Assay type in all cases: in vivo
[1] = system: barnyardgrass (Echinochloa crus-galli); details: Echinochloa crus-galli, post-emergence
Method in brief: (§1)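 Preemergence: seeds sown in loam–sand blend or silt loam and sprayed with test chemicals in a non-phytotoxic surfactant-containing solvent. Postemergence: potted plants at 2–18 cm (1–4-leaf stage) sprayed with the same formulation. After 13–15 d in greenhouse, visual rating versus controls on 0 (no effect) to 100 (complete control) scale.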

[2] = system: blackgrass (Alopecurus myosuroides); details: Alopecurus myosuroides, post-emergence
Method in brief: as §1

corn (Zea mays) = details: Zea mays, post-emergence
Method in brief: as §1

[3] = system: crabgrass, large (large crabgrass, Digitaria sanguinalis); details: Digitaria sanguinalis, post-emergence
Method in brief: as §1

[4] = system: galium (catchweed bedstraw, Galium aparine); details: Galium, post-emergence
Method in brief: as §1

kochia (Kochia scoparia) = details: Bassia scoparia, post-emergence
Method in brief: as §1

[5] = system: lambsquarters (Chenopodium album); details: Chenopodium album, post-emergence
Method in brief: as §1

[6] = system: nutsedge, yellow (yellow nutsedge, Cyperus esculentus); details: Cyperus, post-emergence
Method in brief: as §1

[7] = system: oat, wild (wild oat Avena fatua); details: Avena fatua, post-emergence
Method in brief: as §1

[8] = system: oilseed rape (Brassica napus); details: Brassica napus, post-emergence
Method in brief: as §1

[9] = system: ragweed (common ragweed, Ambrosia elatior); details: Ambrosia artemisiifolia, post-emergence
Method in brief: as §1

[10] = system: ryegrass, Italian (Italian ryegrass, Lolium multiflorum); details: Lolium multiflorum, post-emergence
Method in brief: as §1

soybean (Glycine max) = details: Glycine max, post-emergence
Method in brief: as §1

[11] = system: velvetleaf (Abutilon theophrasti); details: Abutilon theophrasti, post-emergence
Method in brief: as §1

[12] = system: waterhemp (common waterhemp, Amaranthus rudis); details: for Plant response rating, Waterhemp: scale 0 to 100; for Waterhemp plant response rating: scale 0 to 100 (0 no effect, 100 complete control)
Method in brief: as §1

[13] = system: wheat (winter wheat, Triticum aestivum); details: Triticum aestivum, post-emergence
Method in brief: as §1

[14] = 62 g ai/ha, scale 0 to 100 (0 no effect, 100 complete control)
[15] = 125 g ai/ha, scale 0 to 100 (0 no effect, 100 complete control)

Work on `N#Cc1cccc(Oc2ncc(Cl)cn2)c1CCCCC(F)(F)F` [Compound 73, 3-[(5-chloro-2-pyrimidinyl)oxy]-2-(5,5,5-trifluoropentyl)benzonitrile] yielded a pest or weed control at 16 g/ha ([1]; 16 g ai/ha, scale 0 to 100) of 10%, a pest or weed control at 31 g/ha ([1]; 31 g ai/ha, scale 0 to 100) of 15% and a pest or weed control at 62 g/ha [1, 14] of 20%. For the same compound, the pest or weed control at 125 g/ha [1, 15] was 30%, the pest or weed control at 16 g/ha ([2]; 16 g ai/ha, scale 0 to 100) was 10% and the pest or weed control at 31 g/ha ([2]; 31 g ai/ha, scale 0 to 100) was 5%. It also gave a pest or weed control at 62 g/ha [2, 14] of 40%, a pest or weed control at 125 g/ha [2, 15] of 35% and a Corn plant response rating (crop injury, 0 = no effect, 100 = complete kill) at 16 g/ha (corn (Zea mays); 16 g ai/ha, scale 0 to 100) of 10%. For the same compound, the Corn plant response rating (crop injury, 0 = no effect, 100 = complete kill) at 31 g/ha (corn (Zea mays); 31 g ai/ha, scale 0 to 100) was 20%, the plant injury at 62 g/ha (corn (Zea mays); [14]) was 15% and the plant injury at 125 g/ha (corn (Zea mays); [15]) was 15%. The pest or weed control at 16 g/ha ([3]; 16 g ai/ha, scale 0 to 100) was 15%, the pest or weed control at 31 g/ha ([3]; 31 g ai/ha, scale 0 to 100) was 10% and the pest or weed control at 62 g/ha [3, 14] was 25%. For the same compound, the pest or weed control at 125 g/ha [3, 15] was 60%, the pest or weed control at 16 g/ha ([4]; 16 g ai/ha, scale 0 to 100) was 70% and the pest or weed control at 31 g/ha ([4]; 31 g ai/ha, scale 0 to 100) was 70%. It also gave a pest or weed control at 62 g/ha [4, 14] of 75%, a pest or weed control at 125 g/ha [4, 15] of 98% and a pest or weed control at 16 g/ha (kochia (Kochia scoparia); 16 g ai/ha, scale 0 to 100) of 98%. It also gave a pest or weed control at 31 g/ha (kochia (Kochia scoparia); 31 g ai/ha, scale 0 to 100) of 100%, a pest or weed control at 62 g/ha (kochia (Kochia scoparia); [14]) of 100% and a pest or weed control at 125 g/ha (kochia (Kochia scoparia); [15]) of 100%. For the same compound, the pest or weed control at 16 g/ha ([5]; 16 g ai/ha, scale 0 to 100) was 75%, the pest or weed control at 31 g/ha ([5]; 31 g ai/ha, scale 0 to 100) was 80% and the pest or weed control at 62 g/ha [5, 14] was 90%. For the same compound, the pest or weed control at 125 g/ha [5, 15] was 98%, the pest or weed control at 16 g/ha ([6]; 16 g ai/ha, scale 0 to 100) was 5% and the pest or weed control at 31 g/ha ([6]; 31 g ai/ha, scale 0 to 100) was 15%. For the same compound, the pest or weed control at 62 g/ha [6, 14] was 20%, the pest or weed control at 125 g/ha [6, 15] was 30% and the pest or weed control at 16 g/ha ([7]; 16 g ai/ha, scale 0 to 100) was 5%. It also gave a pest or weed control at 31 g/ha ([7]; 31 g ai/ha, scale 0 to 100) of 5%, a pest or weed control at 62 g/ha [7, 14] of 5% and a pest or weed control at 125 g/ha [7, 15] of 10%. It also gave a plant injury at 16 g/ha ([8]; 16 g ai/ha, scale 0 to 100) of 5%, a plant injury at 31 g/ha ([8]; 31 g ai/ha, scale 0 to 100) of 80% and a plant injury at 62 g/ha [8, 14] of 98%. The plant injury at 125 g/ha [8, 15] was 50%, the pest or weed control at 16 g/ha ([9]; 16 g ai/ha, scale 0 to 100) was 50% and the pest or weed control at 31 g/ha ([9]; 31 g ai/ha, scale 0 to 100) was 55%. The pest or weed control at 62 g/ha [9, 14] was 60%, the pest or weed control at 125 g/ha [9, 15] was 65% and the pest or weed control at 16 g/ha ([10]; 16 g ai/ha, scale 0 to 100) was 5%. For the same compound, the pest or weed control at 31 g/ha ([10]; 31 g ai/ha, scale 0 to 100) was 5%, the pest or weed control at 62 g/ha [10, 14] was 10% and the pest or weed control at 125 g/ha [10, 15] was 20%. It also gave a plant injury at 16 g/ha (soybean (Glycine max); 16 g ai/ha, scale 0 to 100) of 45%, a plant injury at 31 g/ha (soybean (Glycine max); 31 g ai/ha, scale 0 to 100) of 70% and a plant injury at 62 g/ha (soybean (Glycine max); [14]) of 75%. The plant injury at 125 g/ha (soybean (Glycine max); [15]) was 60%, the pest or weed control at 16 g/ha ([11]; 16 g ai/ha, scale 0 to 100) was 40% and the pest or weed control at 31 g/ha ([11]; 31 g ai/ha, scale 0 to 100) was 60%. The pest or weed control at 62 g/ha ([11]; 62 g ai/ha, scale 0 to 100 (0 no effect, 100 complete control), read-out: Velvetleaf plant response rating) was 70%, the pest or weed control at 125 g/ha [11, 15] was 75% and the “Plant response rating, Waterhemp” value ([12]; 16 g ai/ha) was 85. The “Plant response rating, Waterhemp” value ([12]; 31 g ai/ha) was 98, the “Waterhemp plant response rating” value ([12]; 62 g ai/ha) was 100 and the “Waterhemp plant response rating” value ([12]; 125 g ai/ha) was 100. It also gave a plant injury at 16 g/ha ([13]; 16 g ai/ha, scale 0 to 100) of 0%, a plant injury at 31 g/ha ([13]; 31 g ai/ha, scale 0 to 100) of 5% and a plant injury at 62 g/ha ([13]; 62 g ai/ha, scale 0 to 100 (0 no effect, 100 complete control), read-out: Wheat plant response rating) of 5%. The plant injury at 125 g/ha [13, 15] was 5%.
